Data reported in publication PMC12747936, “Rhamnose alleviates the proinflammatory response during endotoxemia via the CEACAM1/LGALS9-p38 axis” (Acta Biochimica et Biophysica Sinica, 2025).

Experiments:
CEACAM1 (BMDMs) = biological target: T1, CEACAM1 (BMDMs) (Mus musculus, UniProt P31809); assay: CETSA and DARTS, western blot; assay type: biochemical; conditions: BMDM lysate; CETSA 100 μM rhamnose, 2 h, 37-67°C; DARTS with pronase 1:1000, TNC buffer pH 8.0
T1 construct: endogenous protein in lysate of murine bone marrow-derived macrophages; band 150-250 kDa region discussed
T1 sequence (P31809 35-521): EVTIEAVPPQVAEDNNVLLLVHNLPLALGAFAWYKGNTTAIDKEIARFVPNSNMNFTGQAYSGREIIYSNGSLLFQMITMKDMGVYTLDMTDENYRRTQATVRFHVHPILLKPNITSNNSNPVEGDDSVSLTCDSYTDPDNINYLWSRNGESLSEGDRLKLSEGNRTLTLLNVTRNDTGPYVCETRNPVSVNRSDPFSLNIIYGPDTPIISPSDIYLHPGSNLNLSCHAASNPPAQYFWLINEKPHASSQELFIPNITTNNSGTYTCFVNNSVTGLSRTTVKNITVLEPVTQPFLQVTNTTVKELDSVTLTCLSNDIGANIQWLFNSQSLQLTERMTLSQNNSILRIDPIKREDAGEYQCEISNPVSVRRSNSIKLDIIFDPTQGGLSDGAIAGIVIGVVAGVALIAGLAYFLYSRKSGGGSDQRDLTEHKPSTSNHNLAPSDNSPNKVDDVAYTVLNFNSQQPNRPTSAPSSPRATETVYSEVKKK

CEACAM1 (THP-1-dMs) = biological target: T2, CEACAM1 (THP-1-dMs) (Homo sapiens, UniProt P13688); assay: CETSA and DARTS, western blot; assay type: biochemical; conditions: THP-1-dM lysate; CETSA 100 μM rhamnose, 2 h, 37-67°C; DARTS with pronase 1:1000, TNC buffer pH 8.0
T2 construct: endogenous protein in lysate of PMA-differentiated THP-1 macrophages
T2 sequence (P13688 35-526): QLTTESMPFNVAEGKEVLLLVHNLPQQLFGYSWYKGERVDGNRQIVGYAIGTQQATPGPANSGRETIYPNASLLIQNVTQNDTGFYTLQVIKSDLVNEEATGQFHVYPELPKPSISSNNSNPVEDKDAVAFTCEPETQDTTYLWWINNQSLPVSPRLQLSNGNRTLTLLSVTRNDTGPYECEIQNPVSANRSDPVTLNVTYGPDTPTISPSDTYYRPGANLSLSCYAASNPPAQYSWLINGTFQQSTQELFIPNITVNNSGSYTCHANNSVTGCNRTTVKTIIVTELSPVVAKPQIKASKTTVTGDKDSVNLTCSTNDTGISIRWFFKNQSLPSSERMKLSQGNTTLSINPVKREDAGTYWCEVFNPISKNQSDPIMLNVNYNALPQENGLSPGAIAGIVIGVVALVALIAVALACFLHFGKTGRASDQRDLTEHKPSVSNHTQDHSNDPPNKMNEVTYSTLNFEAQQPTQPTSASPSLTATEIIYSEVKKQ

C[C@@H]1OC(O)[C@H](O)[C@H](O)[C@H]1O (some centres unmarked) [rhamnose]
CETSA and DARTS, western blot (CEACAM1 (BMDMs)): CETSA also demonstrated that rhamnose reduced the degradation rate of CEACAM1 in heat-denatured BMDMs | CETSA and DARTS, western blot (CEACAM1 (THP-1-dMs)): rhamnose treatment increased the resistance of the CEACAM1 protein to protease hydrolysis
